From paper PMC7880690, “Chemical genetics and proteome-wide site mapping reveal cysteine MARylation by PARP-7 on immune-relevant protein targets” (eLife, 2021)
pEC50: −log10 of the molar value.

Target: T1, PARP-10 (Homo sapiens, UniProt Q53GL7)
T1 sequence (Q53GL7 1-1025): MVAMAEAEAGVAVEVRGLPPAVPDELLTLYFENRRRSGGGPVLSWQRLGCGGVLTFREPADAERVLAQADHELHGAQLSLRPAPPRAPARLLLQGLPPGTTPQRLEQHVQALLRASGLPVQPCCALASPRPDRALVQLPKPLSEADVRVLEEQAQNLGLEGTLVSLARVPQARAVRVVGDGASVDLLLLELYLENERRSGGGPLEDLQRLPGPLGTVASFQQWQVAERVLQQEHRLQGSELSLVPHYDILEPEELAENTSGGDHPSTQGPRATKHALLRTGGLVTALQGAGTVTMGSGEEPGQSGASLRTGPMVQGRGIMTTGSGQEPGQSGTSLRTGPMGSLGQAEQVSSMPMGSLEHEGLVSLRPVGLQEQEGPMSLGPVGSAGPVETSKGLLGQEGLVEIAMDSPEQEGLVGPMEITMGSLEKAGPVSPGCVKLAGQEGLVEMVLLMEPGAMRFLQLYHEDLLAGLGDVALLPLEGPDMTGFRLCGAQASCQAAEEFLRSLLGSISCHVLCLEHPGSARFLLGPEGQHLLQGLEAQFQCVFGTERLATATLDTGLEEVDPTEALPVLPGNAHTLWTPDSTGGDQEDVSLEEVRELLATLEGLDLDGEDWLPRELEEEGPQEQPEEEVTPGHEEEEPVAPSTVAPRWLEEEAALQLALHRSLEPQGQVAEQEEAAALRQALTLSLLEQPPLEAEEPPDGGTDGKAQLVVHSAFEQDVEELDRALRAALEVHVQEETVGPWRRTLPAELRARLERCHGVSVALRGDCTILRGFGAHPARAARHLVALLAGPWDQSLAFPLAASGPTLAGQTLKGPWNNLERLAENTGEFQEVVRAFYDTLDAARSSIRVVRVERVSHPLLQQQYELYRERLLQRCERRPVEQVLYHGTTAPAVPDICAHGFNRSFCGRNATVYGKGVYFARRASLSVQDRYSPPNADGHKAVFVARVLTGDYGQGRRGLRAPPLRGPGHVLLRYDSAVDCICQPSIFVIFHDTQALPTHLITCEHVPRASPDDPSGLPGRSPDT
Assay: Auto-MARylation of PARP-10 in GFP-PARP-10 expressing HEK 293 T cells, western blot with ADPr antibody

`N#Cc1ccc(N2CCN(C(=O)c3cc(Cc4n[nH]c(=O)c5ccccc45)ccc3F)CC2)nc1` [Phthal01, 6-(4-(2-fluoro-5-((4-oxo-3,4-dihydrophthalazin-1-yl)methyl)benzoyl)piperazin-1-yl)nicotinonitrile] gave a pEC50 of ~5.52.
